Data as given in patent US20240270821A1, “GIP/GLP1/GCG TRI-RECEPTOR AGONISTS AND USES THEREOF” (priority 2023, published 2024).
Like-named read-outs stand apart in the source and are kept apart here. Marks after values point to notes of the source that are not given here. Starred links: 1 amine or outer side, 2 acyl side, 3 side chain; linkers in the order of their positions; H or OH if unused. Non-standard residues stand in square brackets, D forms with d. Groups on a side chain read outwards from the residue. *: point of attachment. C20 diacid = O=C(O)CCCCCCCCCCCCCCCCCCC(=O)*; C18 diacid = O=C(O)CCCCCCCCCCCCCCCCC(=O)*; αMePhe(2-F) = C[C@](N)(Cc1ccccc1F)C(=O)O; γGlu = O=C(O)[C@H](CCC(=O)[*:2])N[*:1]; αMeY = C[C@](N)(Cc1ccc(O)cc1)C(=O)O; αMeF = C[C@](N)(Cc1ccccc1)C(=O)O; 4Pal = N[C@@H](Cc1ccncc1)C(=O)O; αMeL = CC(C)C[C@](C)(N)C(=O)O; αMeS = C[C@](N)(CO)C(=O)O; Orn = NCCC[C@H](N)C(=O)O; AEEA = NCCOCCOCC(=O)O; Aib = CC(C)(N)C(=O)O

Tests used:
[1] = target: hGcgR (Homo sapiens, UniProt P47871); assay: Functional cAMP activation in the presence of 0.1% casein (no HSA); assay type: cell-based;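 also: intracellular cAMP rise after 30 min at 37 °C, read by HTRF against a cAMP standard curve, scaled from buffer only (0%) to maximal control ligand response (100%)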
hGcgR, sequence (P47871 26-477): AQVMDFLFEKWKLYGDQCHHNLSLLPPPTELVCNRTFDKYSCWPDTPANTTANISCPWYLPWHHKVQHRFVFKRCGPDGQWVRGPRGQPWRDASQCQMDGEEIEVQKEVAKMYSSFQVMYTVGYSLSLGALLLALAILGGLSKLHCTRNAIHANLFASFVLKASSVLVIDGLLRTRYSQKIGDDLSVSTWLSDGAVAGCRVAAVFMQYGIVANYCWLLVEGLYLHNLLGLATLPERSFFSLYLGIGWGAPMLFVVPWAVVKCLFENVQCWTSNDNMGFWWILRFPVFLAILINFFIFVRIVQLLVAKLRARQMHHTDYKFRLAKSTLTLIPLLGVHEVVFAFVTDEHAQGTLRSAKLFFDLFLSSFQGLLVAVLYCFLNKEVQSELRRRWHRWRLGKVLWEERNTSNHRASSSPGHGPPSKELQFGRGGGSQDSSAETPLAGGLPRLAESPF

[2] = target: T1, hGLP-1R (Homo sapiens, UniProt P43220); assay: Functional cAMP activity in the presence of 1% HSA; assay type: cell-based
Target sequence in this assay (P43220 24-463): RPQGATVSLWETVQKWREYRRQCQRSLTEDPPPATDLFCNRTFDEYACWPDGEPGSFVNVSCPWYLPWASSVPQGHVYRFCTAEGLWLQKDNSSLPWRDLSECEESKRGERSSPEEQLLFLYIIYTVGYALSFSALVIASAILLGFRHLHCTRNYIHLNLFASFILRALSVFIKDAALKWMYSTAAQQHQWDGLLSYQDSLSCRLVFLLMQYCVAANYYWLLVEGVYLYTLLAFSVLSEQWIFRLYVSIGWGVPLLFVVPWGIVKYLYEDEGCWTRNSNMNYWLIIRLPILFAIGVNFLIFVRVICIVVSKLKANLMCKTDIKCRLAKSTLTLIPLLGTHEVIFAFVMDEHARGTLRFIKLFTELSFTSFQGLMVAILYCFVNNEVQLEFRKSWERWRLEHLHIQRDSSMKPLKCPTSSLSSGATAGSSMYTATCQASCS

[3] = target: human GLP1-R (Homo sapiens, UniProt P43220); assay: GLP1-R internalization assay in HEK293 cells; assay type: cell-based
human GLP1-R, sequence (P43220 24-463): as above

[4] = target: T2, hGIPR (Homo sapiens, UniProt P48546); assay: Functional cAMP activity in the presence of 1% HSA; assay type: cell-based
T2 sequence (P48546 22-466): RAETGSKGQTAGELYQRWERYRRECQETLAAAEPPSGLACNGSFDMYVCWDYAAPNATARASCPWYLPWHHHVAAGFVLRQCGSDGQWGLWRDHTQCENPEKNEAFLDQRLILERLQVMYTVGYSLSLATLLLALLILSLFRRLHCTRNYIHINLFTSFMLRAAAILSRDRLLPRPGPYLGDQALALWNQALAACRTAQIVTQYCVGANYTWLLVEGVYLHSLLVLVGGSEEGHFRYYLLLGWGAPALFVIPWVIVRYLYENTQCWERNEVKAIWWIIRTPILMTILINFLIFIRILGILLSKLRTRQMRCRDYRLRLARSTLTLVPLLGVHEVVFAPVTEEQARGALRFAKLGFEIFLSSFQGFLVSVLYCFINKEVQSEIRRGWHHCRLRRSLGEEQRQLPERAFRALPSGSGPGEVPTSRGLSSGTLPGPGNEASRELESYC

[5] = Body weight in diet-induced obese C57BL/6 mice; assay type: in vivo; conditions: percent of starting weight, DIO mice, mean ± SEM n=5
Description: To investigate the effect of the polypeptides as described herein on weight loss, exemplary polypeptides are dosed to C57BL/6 diet-induced obese (DIO) mice. Specifically, DIO male C57BL/6 mice (Taconic, Germantown, NY) maintained on a calorie-rich diet are used in the following studies. Mice are individually housed in a temperature-controlled (24° C.) facility with 12-hour light/dark cycle (lights on 22:00) and free access to food (TD95217) and water. After a minimum of 2 weeks acclimation to the facility, the mice are randomized according to their body weight, so each experimental group of animals would have similar starting body weight. The body weights range from 41 to 50 g. All groups contain 5 mice. […] Treatments are administered by subcutaneous (SC) injection (10 mL/kg) to ad libitum fed DIO mice 30 to 90 minutes prior to the onset of the dark cycle either once daily (QD) or once every 3 days (Q3D) for 9-16 days. Body weight and food intake are measured daily throughout the study. Body weight is presented as percent of the starting weight. […] Data are presented as mean±SEM of 5 animals per group in Table 7 below. Statistical analysis is performed using repeated measures ANOVA, followed by Dunnett's method comparison test.

[6] = target: T1, hGLP-1R; assay: Functional cAMP activation in the presence of 0.1% casein (no HSA); assay type: cell-based;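 as to Relative cAMP EC50, hGIPR: intracellular cAMP rise after 30 min at 37 °C read by HTRF against a standard curve, scaled between buffer alone (0%) and top control ligand concentration (100%), four-parameter fit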;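 as to Relative cAMP EC50, hGLP-1R: intracellular cAMP rise after 30 min at 37 °C read by HTRF, normalized between buffer only (0%) and maximal control ligand (100%), four-parameter variable-slope fit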
Target sequence in this assay (P43220 24-463): as the sequence (P43220 24-463) above

[7] = target: human GcgR (Homo sapiens, UniProt P47871); assay: Functional cAMP activity in the presence of 1% HSA; assay type: cell-based
human GcgR, sequence (P47871 26-477): as the sequence (P47871 26-477) above

[8] = target: T2, hGIPR; assay: Functional cAMP activation in the presence of 0.1% casein (no HSA); assay type: cell-based;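 as to Relative cAMP EC50, hGIPR: intracellular cAMP rise after 30 min at 37 °C read by HTRF against a standard curve, scaled between buffer alone (0%) and top control ligand concentration (100%), four-parameter fit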;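 as to Relative cAMP EC50, hGLP-1R: intracellular cAMP rise after 30 min at 37 °C read by HTRF, normalized between buffer only (0%) and maximal control ligand (100%), four-parameter variable-slope fit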
[9] = target: T1, hGLP-1R; assay: GLP-1R CHO cell β-arrestin recruitment assay; assay type: cell-based; parameters: host or cells: CHO-K1 (PathHunter, assay-ready frozen cells); conditions: for % Stimulation Max: normalized to GLP-1(7-36) as maximum control; for EC50: CHO-K1 PathHunter, β-arrestin-2, 0.1% casein, read-out: hGLP1R β-arrestin Rel EC50;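 as to all read-outs here: luminescence read after 90 min peptide exposure at 37 °C and a further 60 min with detection reagent at room temperature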
Target sequence in this assay (P43220 24-463): as the sequence (P43220 24-463) above
Target sequence in this assay (P32121 whole entry partner): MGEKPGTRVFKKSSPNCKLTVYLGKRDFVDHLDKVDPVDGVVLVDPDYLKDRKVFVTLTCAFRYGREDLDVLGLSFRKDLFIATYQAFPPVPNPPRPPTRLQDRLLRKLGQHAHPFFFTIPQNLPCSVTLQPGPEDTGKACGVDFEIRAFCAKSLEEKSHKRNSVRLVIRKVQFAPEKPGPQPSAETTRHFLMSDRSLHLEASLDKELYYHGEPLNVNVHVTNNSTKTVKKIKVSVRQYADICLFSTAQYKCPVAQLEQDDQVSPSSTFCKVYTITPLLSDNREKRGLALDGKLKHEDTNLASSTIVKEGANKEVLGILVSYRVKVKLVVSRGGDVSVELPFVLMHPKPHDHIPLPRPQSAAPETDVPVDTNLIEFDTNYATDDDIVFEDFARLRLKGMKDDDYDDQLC
Description: CHO-KI cells expressing Pro-Link-tagged Human GLP-1R and enzyme-acceptor-tagged β-arrestin-2 may be obtained from DiscoveRx and prepared as assay-ready frozen cells. Test peptides are solubilized in DMSO and serial dilutions are performed using the Echo acoustic dispenser (LabCyte). Assay media is the PathHunter Cell Assay Buffer (DiscoveRx) containing 0.1% w/v hydrolyzed Casein (Sigma). […] Plates are incubated for 90 minutes in a 37′C/5% C02 incubator and 10 μl of PathHunter detection reagent is added (DiscoveRx) and plates are incubated at room temperature for 60 minutes. Luminescence signal is measured. Peptide concentration-response curves fit to a four-parameter logistic model to calculate potency as an EC50.

[10] = in the presence of 0.1% casein (no HSA), geometric mean, read-out: Relative cAMP EC50, hGcgR
[11] = read-out: cAMP Rel EC50, hGLP-1R
[12] = HEK293 cells expressing SNAP-GLP-1R, read-out: GLP1R Internalization EC50
[13] = normalized to maximum concentration of GLP-1 (100%)
[14] = in the presence of 0.1% casein (no HSA), geometric mean, read-out: Relative cAMP EC50, hGLP-1R
[15] = in the presence of 0.1% casein (no HSA), geometric mean, read-out: Relative cAMP EC50, hGIPR
[16] = read-out: Relative cAMP EC50, hGcgR
[17] = read-out: Relative cAMP EC50, hGLP-1R
[18] = read-out: Relative cAMP EC50, hGIPR

Molecule | EC50 [1, 10] [nM] | EC50 [2, 11] [nM] | EC50 [3, 12] [nM] | Internalization % TOP [3, 13] [%] | EC50 ([4]; read-out: cAMP Rel EC50, hGIPR) [nM] | Body weight (%) ([5]; 10 nmol/kg SC Q3D, 14 days) | EC50 [6, 14] [nM] | EC50 ([7]; read-out: cAMP Rel EC50, hGcgR) [nM] | EC50 [8, 15] [nM] | % Stimulation Max [9] [%] | EC50 [9] [nM] | also measured
H-Y[Aib]QGTFTSDFS[Orn][αMeL]LDKK([AEEA-γGlu-C18 diacid])AQ[Aib]AFIEYLLAGGPSSGAPPPEGS-NH2 [Example 93] | 7.16 | 397 | 30.4 | 50.8 | 27.9 | 86.64 +/− 1.94**** % | 2.63 | 1390 | 0.162 |  |  | 
CC[C@H](C)[C@H](NC(=O)[C@H](CC(C)C)NC(=O)[C@](C)(Cc1ccc(O)cc1)NC(=O)[C@@H](CCC(=O)O)NC(=O)[C@@H](NC(=O)[C@H](Cc1ccccc1)NC(=O)[C@H](CC(N)=O)NC(=O)C(C)(C)NC(=O)[C@H](CCC(N)=O)NC(=O)[C@H](C)NC(=O)[C@H](CCCCNC(=O)CC[C@H](NC(=O)CC[C@H](NC(=O)CCCCCCCCCCCCCCCCC(=O)O)C(=O)O)C(=O)O)NC(=O)[C@H](CCCN)NC(=O)[C@H](CC(=O)O)NC(=O)[C@H](CC(C)C)NC(=O)[C@](C)(CC(C)C)NC(=O)[C@@H](NC(=O)[C@](C)(CO)NC(=O)[C@H](Cc1ccncc1)NC(=O)[C@H](CC(=O)O)NC(=O)[C@H](CO)NC(=O)[C@@H](NC(=O)[C@](C)(Cc1ccccc1F)NC(=O)[C@@H](NC(=O)CNC(=O)[C@H](CCC(N)=O)NC(=O)C(C)(C)NC(=O)[C@@H](N)Cc1ccc(O)cc1)[C@@H](C)O)[C@@H](C)O)[C@@H](C)CC)[C@@H](C)CC)C(=O)N[C@@H](CCC(=O)O)C(=O)NCC(=O)NCC(=O)N1CCC[C@H]1C(=O)N[C@@H](CO)C(=O)N[C@@H](CO)C(=O)NCC(=O)N[C@@H](CCC(=O)O)C(=O)N1CCC[C@H]1C(=O)N[C@@H](CCC(=O)O)C(=O)N1CCC[C@H]1C(=O)N[C@@H](CCC(=O)O)C(N)=O [Example 452] |  |  |  |  | 0.846 |  |  | 240 |  |  |  | EC50 [1, 16]: 2.44 nM; Body weight (%) ([5]; 10 nmol/kg SC QD, 15 days): 74.13 ± 4.11 %; EC50 [6, 17]: 0.235 nM; EC50 [8, 18]: 0.0118 nM
Tirzepatide [reference compound] |  |  |  |  |  |  |  |  |  | 10.5 |  | Internalization % TOP [3]: 60.3%
H-Y[Aib]QGT[αMePhe(2-F)]TSDYSKLLDKIAQK([AEEA-γGlu-C20 diacid])AFIEYLIEGGPSSGAPPPSEG-NH2 [Example 339] | 6.81 | 192 |  |  | 28.8 | 82.36 +/− 3.01**** % | 1.06 | 1510 | 0.101 |  |  | 
H-Y[Aib]QGTFTSDFSK[αMeL]LDKK([AEEA-γGlu-C18 diacid])AQ[Aib]AFIEYLLAGGPSSGEPPPSGE-NH2 [Example 23] | 5.13 | 308 | 51.5 | 67.2 | 25.5 | 80.86 +/− 1.25**** % | 2.98 | 573 | 0.178 |  |  | 
H-Y[Aib]QGTFTSDFSK[αMeL]LDKK([AEEA-AEEA-γGlu-C20 diacid])AQ[Aib]AFIEYLLAGGPSSGEPPPSSE-NH2 [Example 5] | 7.4 | 675 | 53.4 | 75 | 32.5 |  | 2.37 | 2670 | 0.177 | 18.4 | > 10000 | 
H-Y[Aib]QGTFTSDFSK[αMeL]LDKK([AEEA-γGlu-C20 diacid])AQ[Aib]AFIEWLLAGGPSSGEPPPSGE-NH2 [Example 21] | 12.4 | 324 | 87.6 | 72.5 | 29.1 | 83.70 +/− 0.86**** % | 2.7 | 1510 | 0.218 |  |  | 
H-Y[Aib]QGTFTSDFSK[αMeL]LDKK([AEEA-γGlu-C20 diacid])AQQAFIEYLLA[Aib]GPSSGAPPPSEG-NH2 [Example 30] |  |  |  | 72.8 |  | 90.12 +/− 0.30** % |  |  |  |  |  | EC50 [1]: 5.22 nM; EC50 [2]: 806 nM; EC50 [3]: 70.4 nM; EC50 [4]: 72.9 nM; EC50 [6]: 3.18 nM; EC50 [7]: 969 nM; EC50 [8]: 0.247 nM
H-Y[Aib]QGTFTSDFS[Orn][αMeL]LDKK([AEEA-γGlu-C18 diacid])AQ[Aib]AFIEWLLEGGESSGAPPPEGS-NH2 [Example 125] | 3.97 | 1050 | 86.4 | 42.6 | 67.8 | 97.90 +/− 0.32% | 4.12 | 901 | 0.503 |  |  | 
H-Y[Aib]QGTFTSDYSI[αMeL]LDKQAAK([AEEA-AEEA-γGlu-C20 diacid])QFVEWLIA[Aib]GPSSGEPPPAEG-NH2 [Example 334] | 6.77 | 171 | 28.3 | 96.8 | 72.1 | 84.78 +/− 2.74**** % | 0.707 | 2070 | 0.223 |  |  | 
H-Y[Aib]QGTFTSDFSK[αMeL]LDKK([AEEA-γGlu-C20 diacid])AQ[Aib]AFIEYLLAGGPSSGEPPPSSE-NH2 [Example 3] | 3.8 | 546 | 49.2 | 69.7 | 48.1 |  | 1.67 | 1590 | 0.217 | 16.5 | > 10000 | 
H-Y[Aib]QGTFTSDYSI[αMeL]LDKIAAK([AEEA-AEEA-γGlu-C20 diacid])QFVQWLIE[Aib]GPSSGEPPPSEG-NH2 [Example 323] | 6.04 | 293 | 28.2 | 84.8 | 37.7 |  | 1.56 | 1440 | 0.232 | 44 | 10.8 | 
H-Y[Aib]QGTFTSDFSK[αMeL]LDKK([AEEA-γGlu-C20 diacid])AQ[Aib]AFIEYLLAGAPSSGEPPPSEG-NH2 [Example 24] |  |  |  |  |  | 86.10 +/− 1.98**** % |  |  |  |  |  | 
H-Y[Aib]QGT[αMeF]TSDYSILLDKIAAK([AEEA-AEEA-γGlu-C18 diacid])NFIEYLVEGGPSSGEPPPSEG-NH2 [Example 307] | 1.68 | 209 |  |  | 65.3 |  | 0.836 | 1880 | 0.446 | 70.8 | 9.86 | 
H-Y[Aib]QGT[αMePhe(2-F)]TSD[4Pal][αMeS]I[αMeL]LD[Orn]K([AEEA-AEEA-γGlu-C18 diacid])AQ[Aib][Orn]FI[dE][αMeY]LIEGGPSSGEPPPSEG-NH2 [Example 490] |  | 9.8 |  |  | 0.861 |  |  | 262 |  |  |  | EC50 [1, 16]: 3.05 nM; Body weight (%) ([5]; 10 nmol/kg SC QD, 9 days): 80.75 ± 3.23 %; EC50 [6, 17]: 0.183 nM; EC50 [8, 18]: 0.0159 nM
H-H[Aib]QGT[αMePhe(2-F)]TSDYSILLDKK([AEEA-γGlu-C20 diacid])AA[Aib]AFIEYLIEAGPSSGEPPPSEG-NH2 [Example 298] | 1.04 | 70.9 |  |  | 41.3 |  | 0.277 | 1570 | 0.138 | 86.4 | 3.29 | 
